Earlier results as cited in patent publication EP0417819A1, “Psycho-pharmacological peptides” (AKZO N.V., priority 1989, dated 1991).
Entries after “also recorded” stand apart in the source; their conditions may differ.

Test system: extinction of the (active) avoidance behaviour of rats
Details: pole climbing test, state of the art, result in words

In the case of a-endorphin, the “extinction of the (active) avoidance behaviour” value (shortened to “extinction”) is listed as “inhibit the extinction of the avoidance behaviour; also recorded: retarded”.

For “β-endorphin (YGGFMTSEKSQTPLVTLFKNAIIKNAYKKGE; Beta-endorphin; UniProt P01189 237-267, looked up) [(59-89) fragments of β-LPH]”, the “extinction” value is listed as “delays the extinction”.

For “met-enkephalin (YGGFM; Met-enkephalin; UniProt P01189 237-241, looked up) [smaller peptide fragment derived from β-endorphin]”, the “extinction” value is listed as “inhibit the extinction of the avoidance behaviour”.

For “y-endorphin (YGGFMTSEKSQTPLVTL; Beta-endorphin; UniProt P01189 237-253, looked up, fragment) [β-endorphin (1-17)]”, the “extinction” value is listed as “accelerate the extinction of the avoidance behaviour”.
